Measured values from patent publication US11565003B2, “Mechanical opening of lipid bilayers by molecular nanomachines” (William Marsh Rice University, priority 2016, dated 2023).

Assays:
[1] = system: NIH 3T3 cells; test: UV-activated nanomechanical necrosis, live cell confocal microscopy, NIH 3T3; type: cell-based, mouse; settings: for Time of Full Necrosis / Time of Initial Necrosis / % acceleration for full necrosis: 355 nm UV; for % acceleration for full necrosis: versus UV upon blank cells
Description: Following the synthetic bilipid vesicle experiments, nanomechanical action upon live cells was studied using confocal microscopy aided by a super-resolution technique called Phase Modulation Nanoscopy. Applicants used two experimental methods. In the first method (Method A), the molecular motors were loaded into the cell media and the imaging was initiated within 5 minutes to 24 hours. In the second method, (Method B), the molecular motors were loaded into the cell media, incubated for 30 minutes to 24 hours, and then washed three times with fresh molecular motor-free media before imaging. […]
(§1) Microscopy cells were seeded in untreated iBibi 100 μL live cell channels and allowed to grow to 40% to 60% confluence, at 37° C. in 5% CO2. At this stage, the medium was replaced and cells were treated with the studied nanomachines and co-stains as appropriate, with 0.1% DMSO (as detailed above) present in the final imaging medium. For live cell imaging, DMEM/F12 media (10% FBS) lacking phenol red was used from this point onwards. Following incubation, where Method B was used, the channels were washed with live cell imaging media and imaged using a purpose build incubator housing the microscope maintaining 37° C., 5% CO2 and 10% humidity.
(§2) All live cell imaging experiments used either NIH 3T3 mouse skin fibroblast cells, PC-3 cells, a grade 3 human prostate adenocarcinoma, or Chinese hamster ovary cells (CHO). These are all well-studied cell lines with discrete morphological compositions. Each molecular machine was used as a stock solution at 0.10 to 1.00 μM with total dimethyl sulfoxide (DMSO) concentrations not exceeding 0.1% in the final cell media in order to avoid unwanted cell membrane permeabilization, the DMSO being required for solubility of the organic nanomachines. All loading experiments are carried out in a light-suppressed manner and the possibility of induced or accelerated uptake due to interaction between the molecular motors and the applied co-stain has been eliminated using a series of individual and reversed loading experiments.
(§3) All experimental imaging parameters (i.e., laser beam size, confocal pinhole size, laser intensity, line scanning speed, scanning area (field of view, FOV), and line averaging sequences) were kept constant throughout the experiments. The accuracy and errors associated with the establishment of accelerated necrosis are determined based on one dual channel imaging sequence, which takes 15 seconds in total. This imaging sequence has been carefully established using untreated live cells.
(§4) Steady state fluorescence images were recorded using a PhMoNa enhanced Leica SP5 II LSCM equipped with a HCX PL APO 63×/1.40 NA LambdaBlue Oil immersion objective. As an initial control experiment to establish the UV-induced cell toxicity threshold, while mitigating voxel exposure and ensuring sufficient laser dwell time, an imaging sequence has been established to monitor cell morphological and physiological changes as a function of time. All experiments used cell-line-determined culture medium containing 0.1% DMSO.
The applied 100 Hz detection sequence was based on a bidirectional dual-channel continuous scanning method where a minimalistic non-damaging visible laser light (458 nm, 0.2 mW) is used in conjunction with the above detailed UV exposure. This is set as a 2 line/scan accumulation parallel acquisition sequence that is recorded as a function of time. Studied channels correspond to transmission images and UV-induced mitochondrial auto-fluorescence detected at 460 to 550 nm. Applicants further confirmed that the effectiveness of monitoring the UV-activated nanomechanical action on live cells using a conventional CW mercury-arc excitation source equipped with an epi-fluorescence setup consisting of a Zeiss Axiovert 200M inverted microscope, as discussed in FIGS. 18A-C. […]

[2] = system: NIH 3T3 cells; test: Uptake, localization and toxicity of fluorescent nanomachines without UV-light exposure; type: cell-based, mouse
Description: (§5) Following the synthetic bilipid vesicle experiments, nanomechanical action upon live cells was studied using confocal microscopy aided by a super-resolution technique called Phase Modulation Nanoscopy. Applicants used two experimental methods. In the first method (Method A), the molecular motors were loaded into the cell media and the imaging was initiated within 5 minutes to 24 hours. In the second method, (Method B), the molecular motors were loaded into the cell media, incubated for 30 minutes to 24 hours, and then washed three times with fresh molecular motor-free media before imaging.
Applicants first studied the effect of the nanomachines on the cells without UV-light exposure. […] However, due to 1 and 2 having well-pronounced visible fluorescence properties corresponding to the cy5 and BODIPY addends (FIGS. 5A-B and Table 1, respectively), their intracellular uptake, motion or protein/organelle-assisted trafficking are clearly observed. The two luminescent compounds display very different localization patterns.
Applicants undertook a series of control experiments to confirm active molecular motor uptake and suspected endocytosis, using a range of nanomachine loading concentrations (0.10-1.00 μM, Method A) and incubation times of 5-60 minutes at 4° C., which is a temperature of general endocytosis inhibition.

[3] = system: PC-3 cells; test: UV-activated nanomechanical necrosis, live cell confocal microscopy, PC-3; type: cell-based, human; settings: for Time of Full Necrosis / Time of Initial Necrosis / % acceleration for full necrosis: 355 nm UV; for % acceleration for full necrosis: versus UV upon blank cells
Description: as §5
Next, Applicants used the smaller nanomachine, 3. Initial control experiments (blank) were performed without nanomachines being present. UV-induced (355 nm) PC-3 necrosis is not initiated until approximately scan 20 (corresponding to 300 second continuous scanning UV exposure, 400 nJ/voxel total dwell time), characterized by massive disruption and rupture of the mitochondrial network and subsequent well-pronounced auto-fluorescent signal detectable in the nucleoli and nucleus wall (FIG. 7A). This is observable by the nucleoli membrane permeabilization and DNA damage at the onset of necrosis. The UV-induced necrosis reaches final stages at approximately scan 40 (corresponding to 600 seconds) that is consistent with characteristic extracellular membrane rupture and homogenous cytosolic auto-fluorescence, indicating loss of cellular organelle boundaries.
as §1, §2, §3
as §4, with “DMSO. […]” for “DMSO.”

[4] = system: HEK293 cells; test: Whole cell patch clamp electrophysiology; type: cell-based, human
Description: FIGS. 16A-B show whole-cell patch clamp studies of the dynamic effects of UV-induced molecular mechanical action of compound 3 upon HEK293 cells. Also shown are control studies using compound 3 without UV activation, UV-exposed rotor-free control molecule 5, and no molecular additives x. Compounds 3 and 5 were used at 1.0 μM concentrations. […] Similarly, the rotor-free compound 5, and no molecular additive x, show no inward currents during UV illumination (center two traces). Cells were held at −70 mV in voltage clamp mode and UV exposure began 15 seconds after the start of the recording. Each recording is a biological replicate and all traces are shown (n=4 recordings from different cells for 3+UV; n=3 recordings from different cells for each other condition). […] The white arrows (lower right image) highlight membrane blebbing that appears only in the cells treated with UV-activated compound 3. The scale bar represents 10 μm and is applicable for each micrograph.
The dynamic effects of nanomechanical action upon cellular membranes were then studied through the whole cell patch clamp electrophysiology of human embryonic kidney 293 cells (HEK293) commonly used for electrophysiological interrogation. […] These inward currents were not observed in the absence of UV illumination or during UV illumination of non-rotor-bearing control 5 or UV illumination of untreated cells (FIG. 16A).

[5] = NIH 3T3, Method B (washed three times)
[6] = PC-3, Method B (washed three times)

SMILES: CC1=CC(C)=[N+]2C1=C(c1ccccc1C(=O)OCc1cn(CCC#Cc3ccc4c(c3)C(=C3c5c(ccc6ccccc56)C[C@H]3C)c3cc(C#CCCn5cc(COC(=O)c6ccccc6C6=C7C(C)=CC(C)=[N+]7[B-](F)(F)n7c(C)cc(C)c76)nn5)ccc3S4)nn1)c1c(C)cc(C)n1[B-]2(F)F (racemic) [Compound 2]
- Time of Full Necrosis ([1]; NIH 3T3, Method A (no washing)): 585 s
- Time of Initial Necrosis ([1]; NIH 3T3, Method A (no washing)): 300 s
- % acceleration for full necrosis ([1]; NIH 3T3, Method A): 2.5%
- Time of Full Necrosis [1, 5]: 570 s
- Time of Initial Necrosis [1, 5]: 300 s
- % acceleration for full necrosis ([1]; NIH 3T3, Method B): 5%
- localized fluorescence at 4° C. (endocytosis inhibition) (in words) ([2]; NIH 3T3, 0.10-1.00 μM, 5-60 minutes, 4° C.): no detectable localized fluorescence
- intracellular localization without UV (in words) ([2]; NIH 3T3, Method A, 0.10-1.00 μM): enters the cell and localizes in the mitochondria
- necrosis without UV-light exposure (in words) ([2]; NIH 3T3, Method A, no UV): do not induce accelerated necrosis
- toxicity in the applied time and concentration regimes (in words) ([2]; NIH 3T3, no UV): non-toxic

SMILES: C[C@@H]1CSc2ccc3ccccc3c2C1=C1c2cc(C#CCCO)ccc2Sc2ccc(C#CCCO)cc21 (racemic) [Compound 6, reference compound]
- effect on necrosis upon standardized UV-exposure (in words) ([1]; NIH 3T3, Method A): no enhanced necrosis
- Time of Full Necrosis ([1]; NIH 3T3, Method A (no washing)): 615 s
- Time of Initial Necrosis ([1]; NIH 3T3, Method A (no washing)): 300 s
- % acceleration for full necrosis ([1]; NIH 3T3, Method A): 0%
- effect on necrosis upon standardized UV-exposure (in words) ([3]; PC-3, Method A): no enhanced necrosis
- Time of Full Necrosis ([3]; PC-3, Method A (no washing)): 600 s
- Time of Initial Necrosis ([3]; PC-3, Method A (no washing)): 300 s
- % acceleration for full necrosis ([3]; PC-3, Method A): 0%

SMILES: O=c1c2cc(C#CCCO)ccc2sc2ccc(C#CCCO)cc12 [Compound 5, reference compound]
- effect on necrosis upon standardized UV-exposure (in words) ([1]; NIH 3T3, Method A): no effect on necrosis
- Time of Full Necrosis ([1]; NIH 3T3, Method A (no washing)): 600 s
- Time of Initial Necrosis ([1]; NIH 3T3, Method A (no washing)): 300 s
- % acceleration for full necrosis ([1]; NIH 3T3, Method A): 0%
- effect on necrosis upon standardized UV-exposure (in words) ([3]; PC-3, Method A): no effect on necrosis
- Time of Full Necrosis ([3]; PC-3, Method A (no washing)): 600 s
- Time of Initial Necrosis ([3]; PC-3, Method A (no washing)): 300 s
- % acceleration for full necrosis ([3]; PC-3, Method A): 0%
- membrane currents without UV illumination (in words) ([4]; HEK293, 1.0 μM, 4 minute recording, no UV): no change in membrane currents
- inward ionic currents during UV illumination (in words) ([4]; HEK293, Method B, UV 355 nm, 1.0 μM): not observed

SMILES: OCCC#Cc1ccc2c(c1)C(=C1CCc3ccc4ccccc4c31)c1cc(C#CCCO)ccc1S2 [NonMe-3, reference compound]
- Time of Full Necrosis ([3]; PC-3, Method A (no washing)): 540 s
- Time of Initial Necrosis ([3]; PC-3, Method A (no washing)): 270 s
- % acceleration for full necrosis ([3]; PC-3, Method A): 10%
- effect on necrosis upon standardized UV-exposure (in words) ([3]; PC-3, Method A, listed as compound analogous to 3 but without the allylic methyl): only slightly faster than the motor-free system
- effect on necrosis upon standardized UV-exposure (in words) ([3]; PC-3, Method A, listed as demethylated 3): slowed necrosis

SMILES: C[C@@H]1Cc2ccc3ccccc3c2C1=C1c2cc(C#CCCn3cc(CCC(=O)N[C@@H](CC(=O)O)C(=O)NCC(=O)N[C@@H](CCC(=O)O)C(=O)N[C@@H](C)C(N)=O)nn3)ccc2Sc2ccc(C#CCCn3cc(CCC(=O)N[C@@H](CC(=O)O)C(=O)NCC(=O)N[C@@H](CCC(=O)O)C(=O)N[C@@H](C)C(N)=O)nn3)cc21 [Compound 7]
- Time of Full Necrosis ([1]; NIH 3T3, Method A (no washing)): 390 s
- Time of Initial Necrosis ([1]; NIH 3T3, Method A (no washing)): 150 s
- % acceleration for full necrosis ([1]; NIH 3T3, Method A): 40%
- Time of Full Necrosis [1, 5]: 390 s
- Time of Initial Necrosis [1, 5]: 165 s
- % acceleration for full necrosis ([1]; NIH 3T3, Method B): 40%
- selectivity for targeted PC-3 cells over non-targeted control cells (in words) ([3]; NIH 3T3 and CHO as non-targeted controls): No selectivity was observed
- Time of Full Necrosis ([3]; PC-3, Method A (no washing)): 360 s
- Time of Initial Necrosis ([3]; PC-3, Method A (no washing)): 165 s
- % acceleration for full necrosis ([3]; PC-3, Method A): 35%
- Time of Full Necrosis [3, 6]: 390 s
- Time of Initial Necrosis [3, 6]: 180 s
- % acceleration for full necrosis ([3]; PC-3, Method B): 35%

SMILES: Cc1ccc(S(=O)(=O)OCCC#Cc2ccc3c(c2)C(=C2c4c(ccc5ccccc45)C[C@H]2C)c2cc(C#CCCOS(=O)(=O)c4ccc(C)cc4)ccc2S3)cc1 (racemic) [Compound 4]
- Time of Full Necrosis ([1]; NIH 3T3, Method A (no washing)): 540 s
- Time of Initial Necrosis ([1]; NIH 3T3, Method A (no washing)): 270 s
- % acceleration for full necrosis ([1]; NIH 3T3, Method A): 10%
- Time of Full Necrosis ([3]; PC-3, Method A (no washing)): 540 s
- Time of Initial Necrosis ([3]; PC-3, Method A (no washing)): 270 s
- % acceleration for full necrosis ([3]; PC-3, Method A): 10%
